Patent publication US20150297619A1, “METHODS AND COMPOSITIONS FOR PRESERVING THE MUCOSAL BARRIER” (priority 2014, published 2015)

Columns and labels:
~20-kDa serine proteases = assay: Gelatin gel zymography of plasma, lung and intestine samples renatured with serine protease inhibitors; format: biochemical, rat; conditions: 75 μmol/L ANGD or 100 lmol/L TLCK in renaturing and developing buffers, lung, intestine samples
Method: Protease Activity—Gelatin gel zymography was completed as previously described. When present, the luminal contents from the jejunal tissue were discarded by gentle compression of the intestine before homogenization to prevent excess digestion of the gelatin substrate in the gels by luminal proteases. Tissues from shocked animals (flushed and nonflushed) as well as controls were rinsed and blotted dry before weighing. Protein concentration was determined using the BCA kit before mixing each sample in a 1:1 ratio with loading dye (containing sodiumdodecyl sulfate (SDS), but no reducing agent). Two microgram protein/lane of intestine or 20 μg protein/lane of lung homogenates were loaded. Plasma (0.5 μL) was mixed with 2 μL loading dye and loaded into each lane.
Samples were separated by gel electrophoresis in 11% sodiumdodecyl sulfate polyacrylamide gel electrophoresis (SDS-PAGE) gelatin impregnated gels. Upon separation, gel proteins were renatured in 2.5% Triton-X 100 in water (49, 15 min) before incubation at 37° C. overnight in developing buffer (0.05 mol/L Tris base, 0.2 mol/L NaCl, 4 μmol/L ZnCl2, 5 mmol/L CaCl2.2H2O). Gels were then fixed and stained (50% methanol, 10% acetic acid, 40% water, and 0.25% Coomassie blue solution) for 3 h, destained in water to achieve appropriate contrast before digital analysis (ImageJ).
To confirm that the ˜20-kDa bands were serine proteases, gels were renatured and developed in the aforementioned buffers with the addition of either 75 μmol/L serine protease inhibitor ANGD (nafamostat mesilate) or 100 lmol/L trypsin inhibitor tosyl-lysine chloromethyl ketone (TLCK) and compared to duplicate gels that were subject to the standard renaturation procedure.

experimental shock = conditions: cited from earlier work
[1] = tested on: mucin 13, occludin, and E-cadherin; assay: Immunoblots of epithelial barrier proteins in post-ischemic intestinal homogenates (segment 7); design: species or system rat; conditions: ileum segment 7, two hour ex vivo ischemia
Method: Immunoblotting—To determine whether selected epithelial barrier proteins were degraded during ischemia, pre- and post-ischemic intestinal tissue homogenates (segment 7) were analyzed for relative levels of mucin 13, occludin, and E-cadherin.
Tissues were homogenized for immunoblot analysis in buffer (CelLytic, Sigma-Aldrich) with protease inhibitor cocktail (HALT, Thermo Scientific, 1:100 dilution) and centrifuged (1×10^4 g, 20 min). Protein concentration in supernatants was determined (BCA, ThermoScientific). To separate proteins by gel electrophoresis, 30 μg of protein/well were loaded in 8 or 12% resolving gels with 4% stacking gels and transferred to nitrocellulose membranes (Bio-Rad, Hercules, Calif.). Membranes were blocked for one hour with either 5% bovine serum albumin (BSA) or 5% nonfat milk in tris-buffered saline with 0.5% Tween-20 (TBS-T). Primary antibodies diluted in 1% BSA or 1% nonfat milk against mucin 13 (1:1000, extracellular domain, sc-66973 Santa Cruz Biotechnology, Santa Cruz, Calif.), E-cadherin (1:1000, intracellular domain, 33-4000, Invitrogen), occludin (1:1000, intracellular domain, 33-1500, Invitrogen), pancreatic trypsin (1:1000, sc-137077 Santa Cruz Biotechnology), or β-actin (1:1000, sc-130301, Santa Cruz Biotechnology) were incubated overnight at 4° C. After incubation, membranes were washed with TBS-T (3×, 10 min) before addition of goat anti-rabbit or rabbit anti-mouse secondary antibodies (Santa Cruz Biotechnology) diluted 1:1000 in TBS-T. Following secondary antibody incubation (60 min), the membranes were washed with TBS-T (3×) and developed.

[2] = tested on: ischemic small intestine segments (jejunum to ileum); assay: Ex vivo intestinal ischemia: transmural fluorescein transport across wall of flushed intestinal segments; design: species or system rat
Description: Intestinal Ischemia—Since intestinal properties are non-homogenous, the transmural permeability was investigated over the entire length of the jejunum and ileum. Due to physical constraints of the small intestine anatomy, it is not feasible to simultaneously analyze permeability from multiple segments in vivo. Therefore, an ex vivo approach similar to previously published studies was designed to measure permeability along the length of the small intestine.
A midline incision was made to expose the intestine in anesthetized rats. The proximal end of the jejunum (approximately 5 cm distal from the ligament of Treitz) was cannulated with a female luer to barb tube connector (⅛″ inner diameter). The intestine was removed and placed in saline immediately before euthanasia. In order to focus the analysis on permeability of the intestinal wall during ischemia in the absence of luminal contents (including the digestive proteases or cytotoxic factors from food), the lumen of the intestine was flushed with 40 ml saline using pulsatile pressure. Visual examination confirmed all solid contents were removed. Next, the intestine was cut into eight equal length segments (˜8 cm) sequentially ordered from the proximal jejunum (position 1) to the distal ileum (position 8). Both ends of each segment were cannulated with Female Luer to Barb tube connectors (thus allowing entry and exit points from the intestinal lumen to be sealed completely), secured with 4-0 suture, and the exterior portion of one adaptor on each segment sealed with clay.
To determine the transmural permeability of the intestine, all 8 segments from each animal were filled with a low molecular weight tracer as a sensitive measure of early barrier breakdown prior to the initiation of ischemia, fluorescein (332 Da M.W., 20 μg/ml from 5 mg/ml stock in ethanol; 0.308 osm/L; Sigma-Aldrich, St. Louis, Mo.) mixed with saline, glucose (100 mg/ml in saline; 0.550 moles/L; 0.863 osm/L, Sigma-Aldrich), the non-metabolizing glucose analog mannitol (100 mg/ml in saline; 0.550 moles/L; 0.863 osm/L), the serine protease inhibitor tranexamic acid (31 mg/ml in saline; 0.200 moles/L; 0.508 osm/L, Sigma-Aldrich), the MMP inhibitor doxycycline hyclate (1 mg/ml in saline; 1.955×10^−3 moles/L; 0.310 osm/L, Sigma-Aldrich), or the MMP inhibitor GM 6001 [38] (1 μg/ml in saline from 1 mg/ml stock in DMSO; 2.57×10^−6 moles/L; 0.308 osm/L, Millipore, Billerica, Md.). […]
Sealed segments were rinsed in saline, individually placed in 15 ml conical tubes containing 6 ml saline, and incubated at 37° C. for 2 hours to simulate ischemic conditions. […] Plates were read in a plate reader (FilterMax F-5 Multi-mode, Molecular Devices, Sunnyvale, Calif.) for concentration of fluorescein (excitation 494/emission 521) to measure diffusion across the wall of the intestine.
Permeability Analysis—To determine the fluorescein transport across the ischemic intestinal wall, the fluorescence at time 0 was subtracted from fluorescence values at later time points to correct for background, and fluorescence values were corrected to account for the volume reduction due to sampling during the experiment. The RFU measurements were converted to equivalent moles by using the linear relationship between concentration and fluorescein fluorescence (not shown, R^2=0.999). The transport of fluorescein across the wall (measured in moles, per time) was computed as the change in fluorescence over a 30 min interval divided by 30 min.

intestinal villi = assay: Morphological analysis of intestinal villi after ex vivo ischemia (Van Gieson/hematoxylin); design: species or system rat; conditions: jejunum and ileum after 2 hrs ex vivo ischemia
Method: After the two-hour ischemic incubation, intestinal pieces from segments 2 (jejunum) and 7 (ileum) were embedded in O.C.T. (Tissue Tek, Torrance, Calif.) and snap frozen in t-methyl butane in liquid nitrogen. Intestine samples from segments 2 and 7 (for protease analysis) and segment 7 (for immunoblots) were snap frozen and stored for subsequent homogenization. Morphological Analysis and TUNEL Labeling—Intestinal segments frozen in O.C.T. were cut into 5 μm sections. Sections were fixed using ice-cold methanol (8 min at −20° C.) and immediately washed four times in distilled water. Nuclei were stained by incubating sections in freshly mixed Weigert's Iron Hematoxylin A and B (Electron Microscopy Science, Hatfield, Pa.) (10 min) followed by rinsing thoroughly with water. Collagen fibers were labeled by incubating (2 min) in Van Gieson's Solution (Electron Microscopy Science). Prior to mounting, all slides were dehydrated (70, 95, 100% ethanol) and cleaned with xylene. After air-drying overnight, sections were mounted using Hard Set Mounting Media (Vector Laboratories, Burlingame, Calif.). Digital images were captured with a 20× objective (numerical aperture 0.5) and digitally montaged together after background subtraction. The separation of the mucosal epithelial layer was quantified for groups that had intact villi following the two hour ischemic period. Images were blinded and the distance between the mucosal epithelial layer and the lamina propria was measured over five lengths across a minimum of 6 villi.

20 kDa serine proteases = assay: Gelatin gel zymography of pre-ischemic intestinal homogenates renatured with inhibitor: serine protease bands; format: biochemical, rat; conditions: inhibitor in renaturing and developing buffer: tranexamic acid 20 mM, doxycycline 1 mg/ml, GM-6001 1 ug/ml
Method: Gelatin Gel Zymography—Segments 2 and 7 from pre-ischemic intestines were homogenized (0.1 g tissue/ml homogenization buffer; PBS pH 7.4 with 0.5% hexadecyltrimethyl bromide) and centrifuged at 1.4×10^4 g for 20 minutes. Supernatants were stored at −80° C. until samples were processed.
To assess the proteolytic activities of individual proteases in intestinal tissue samples, sample volumes of 1 μl (with 2 μg of protein) were separated by gel electrophoresis in SDS-PAGE gels containing 80 μg/ml gelatin. […] The molecular weights of the proteases were estimated by use of a standard protein ladder (Invitrogen). Gels were digitized and bands were analyzed by densitometry in ImageJ (rsbweb.nih.gov/ij/).
These gels were compared to a concurrently run gel processed normally.

[3] = tested on: MMP-9 dimers, pro-MMP-2, MMP-2, MMP-1 or MMP-3; assay: Gelatin gel zymography of pre-ischemic intestinal homogenates renatured with inhibitor: MMP bands; format: biochemical, rat; conditions: inhibitor in renaturing and developing buffer: tranexamic acid 20 mM, doxycycline 1 mg/ml, GM-6001 1 ug/ml
Method: Gelatin Gel Zymography—Segments 2 and 7 from pre-ischemic intestines were homogenized (0.1 g tissue/ml homogenization buffer; PBS pH 7.4 with 0.5% hexadecyltrimethyl bromide) and centrifuged at 1.4×10^4 g for 20 minutes. Supernatants were stored at −80° C. until samples were processed. To assess the proteolytic activities of individual proteases in intestinal tissue samples, sample volumes of 1 μl (with 2 μg of protein) were separated by gel electrophoresis in SDS-PAGE gels containing 80 μg/ml gelatin. […] The molecular weights of the proteases were estimated by use of a standard protein ladder (Invitrogen). Gels were digitized and bands were analyzed by densitometry in ImageJ (rsbweb.nih.gov/ij/). […] These gels were compared to a concurrently run gel processed normally.

MMP-1/9 = assay: Plasma MMP-1/9 activity by plate zymography after hemorrhagic shock; format: in vivo, rat; conditions: compared to the HS+SAL animals
Method: Enzyme and Protease Activity Measurements—All microplate assays were performed in duplicate in 96 well black-sided flat bottom polystyrene plates (Corning, New York, N.Y.) and measured in a microplate reader (FilterMax F-5 Multi-mode, Molecular Devices, Sunnyvale, Calif.). Plasma MMP-1/9 activity was also detected by plate zymography using a protease specific substrate (American Peptide Company, Sunnyvale, Calif.).

## CS(=O)(=O)O.CS(=O)(=O)O.N=C(N)Nc1ccc(C(=O)Oc2ccc3cc(C(=N)N)ccc3c2)cc1 [ANGD, 6-amidino-2-naphthyl p-guanidinobenzoate dimethanesulfonate]
~20-kDa serine proteases; dimethanesulfonate
  serine protease (~20 kDa) band intensities: substantial decrease
~20-kDa serine proteases; listed as nafamostat mesilate, dimethanesulfonate
  serine protease (~20 kDa) band intensities: disappeared
Experimental shock; enteral treatment in the small intestine
  microhemorrhages in the intestine: reduced microhemorrhages in the intestine
Experimental shock; enteral, similar model of HS (Altshuler et al. 2012)
  MPO infiltration into the lungs: attenuate MPO infiltration into the lungs

## CNC(=O)[C@H](Cc1c[nH]c2ccccc12)NC(=O)[C@@H](CC(=O)NO)CC(C)C [GM 6001, N-[(2R)-2-(hydroxamidocarbonylmethyl)-4-methylpentanoyl]-L-tryptophan methylamide]
[1]
  E-cadherin levels (immunoblot): neither doxycycline nor GM 6001 were effective
  mucin 13 levels (immunoblot): neither doxycycline nor GM 6001 were effective
  occludin levels (immunoblot): neither doxycycline nor GM 6001 were effective
[2]; ex vivo ischemia, inhibitor in lumen without glucose
  transmural permeability, 90-120 min period: more effective at reducing the transmural permeability compared to either doxycycline or tranexamic acid
[2]; ex vivo ischemia, inhibitor in lumen without glucose, vs saline
  fluorescein transport rates, 30-60 min and 60-90 min periods: significantly decreased compared to the saline treated intestines
Intestinal villi
  intestinal villi structure: did not prevent the villi destruction
20 kDa serine proteases
  20 kDa serine protease activity bands: serine protease bands remained in all gels
[3]
  MMP gelatinase activity bands (220 kDa MMP-9 dimers, pro-MMP-2, MMP-2, 50 kDa band): reduced or eliminated

## OC[C@@H](O)[C@@H](O)[C@H](O)[C@H](O)CO [Mannitol, mannitol]
[2]; ex vivo, treatment in lumen, two-hour ischemic period
  fluorescein transport across the wall of the intestine: neither prevented fluorescein penetration
Intestinal villi
  intestinal villi structure: nor preserved villi structure

## C[C@H]1c2cccc(O)c2C(=O)C2=C(O)[C@]3(O)C(=O)C(C(N)=O)=C(O)[C@@H](N(C)C)[C@@H]3[C@@H](O)[C@@H]21 [doxycycline]
MMP-1/9
  plasma MMP-1/9 activity reduction: 85%

## tosyl-lysine chloromethyl ketone [TLCK]
~20-kDa serine proteases
  serine protease (~20 kDa) band intensities: substantial decrease
~20-kDa serine proteases; listed as tosyllysine chloromethyl ketone hydrochloride
  serine protease (~20 kDa) band intensities: disappeared
